The subject of the assay is Erlich carcinoma. As to the kind of experiment: Combined use of DNase and Doxorubicin, Erlich tumor growth (Example 3). It counts as in vivo, mice. The conditions noted are these: Doxorubicin 2 mg/kg intravenously once a day and/or DNase 0.5 mg/kg intraperitoneally four times a day, day 3 to 7; 7th day after transplantation. The procedure:
Bovine pancreatic DNase I (Fermentas) and human recombinant DNase […]) were used. DNase I solution for injections were prepared by dissolving of DNase matrix solution in sterile phosphate buffer directly before administration. […] Blood plasma DNA of tumor-bearing mice was received according to technique described above. Highly metastatic and low metastatic stains of mice' Luice lung carcinoma and Erlich carcinoma were used. […] For tumor induction in mice, cells were cultivated until the monolayer, than were detached with trypsin-EDTA solution. Cells were washed trice by centrifuging in phosphate buffer and were resuspensed until their concentration have become 0.5×10^7/ml. Viability was defined by inclusion of methylene blue in hemocytometer. […] Mice of C57B1 line and white not thoroughbred mice from “Rappolovo” animal house were used. Weight of animals was 24-26 grams. Animals were contained in cages, for 6-7 mice per one cage on a standard diet without water restriction. LLC cells in dose of 5×10^5 in 100 mkl of phosphate buffer were injected in soft tissues of thigh. […] Group 1-10 mice transplanted with Erlich carcinoma (control). Group 2-10 mice replanted with Erlich carcinoma. […] Group 3-10 mice replanted with Erlich carcinoma. […] Group 4-10 mice replanted with Erlich carcinoma. […] Results of experiments were estimated according to tumor's growth inhibition (TGI) that were expressed in percents to control data received at last day of DNase injection with standard formula using.

For the substance DNase, the “T% (tumor's growth inhibition)” value was found to be 78% and the “Tumor's volume” value is 20 +/− 6.

Values taken from patent US20080004561A1, “Method for Treating Oncological, Virulent and Somatic Diseases, Method for Controlling Treatment Efficiency, Pharmaceutical Agents and Composition for Carrying Out Said Treatment” (priority 2005, published 2008).
